Measured values: patent US5008247A, “Polysulfuric acid esters of bis-aldonamides and their derivatives, process for their preparation and medicaments” (Luitpold-Werk Chemisch-pharmazeutische Fabrik GmbH & Co., priority 1987, dated 1991)
Read-outs that look alike come from different tables or passages of the source.

Experiments:
[1] = test system: fibrinolysis (plasminogen-containing fibrin plates, human standard plasma); assay: Fibrinolysis test (lysis haloes on plasminogen-containing fibrin plates); type: biochemical; conditions: area of lysis haloes less lysis area without substance, 24 hours at 37° C.
Text: The formation of a clinically manifest (relatively large) thrombus can be prevented in various ways. For one, the factors which are involved in the formation of the primary thrombus, such as blood platelet aggregation or the blood clotting system, can be eliminated. On the other hand, the dissolution of the primary thrombus can be accelerated by potentiating endogeneous fibrinolysis. A potentiation of endogeneous fibrinolysis can also serve to dissolve already clinically manifest thrombi again. The fibrinolytic action of a substance is thus of great significance in the prophylaxis and therapy of thrombosis. The fibrinolytic action of the substances according to the invention was determined in the test below.
Fibrinolysis was determined by means of plasminogen-containing fibrin plates.
Petri dishes, dia. 9 cm, were prewarmed to 40° C. 3 ml of a 2% solution of fibrinogen (Behringwerke, Marburg) in water, 1 ml of a plasminogen solution, 2 CTA/ ml (Behringwerke, Marburg), 3 ml of a 1% agarose solution (Serva, Heidelberg) in 50 mM TRIS/HCl, pH 7.8 and 1 ml of a solution of 15 U/ml of thrombin (Behringwerke, Marburg) in water were pipetted into the dishes with swirling. After cooling the plates, wells of 5 mm diameter were punched out.
0.1 ml of plasma (human standard plasma, Behringwerke, Marburg), 0.8 ml of water and 0.1 ml of solution of the test substance in various concentrations were incubated for 10 minutes at 37° C. […] The precipitate was taken up in 0.1 ml of buffer (20 mM TRIS/HCl, 100 mM NaCl, 2.7 mM EDTA, pH 7.8).
After 24 hours at 37° C., the lysis haloes were planimetered. The areas of the lysis haloes less the lysis areas without addition of substance serve as a measure for the fibrinolysis-increasing activity.

[2] = test system: blood clotting (activated clotting system); assay: Clotting test, activated partial thromboplastin time (aPTT); type: biochemical; conditions: prolongation of 150% of the blank value as reference point; converted by heparin calibration curve
Protocol: The inhibition of blood clotting can be measured in a simple manner by means of the activated partial thromboplastin time aPTT. It gives information about the general inhibition of the activated clotting system. In order to decrease the incidence of hemorrhages, as low as possible an inhibition of blood clotting is desired.
Clotting test, aPTT 0.1 ml of plasma and 0.1 ml of Pathromtin^R (Behringwerke, Marburg) are incubated at 37° C. for 2 minutes and 0.1 ml of 25 mM CaCl2 solution is added. The clotting time is measured in a Schnitger & Gross coagulometer. The agent is made up for 5 individual determinations per concentration.
The prlongation of the clotting time is converted into heparin units by means of a calibration curve.

bleeding time = assay: Influence on the bleeding time (rat tail); type: in vivo; conditions: rats, 5 minutes before bleeding, compared to control
Protocol: A piece of tail about 2 mm long was cut from rats. The time until bleeding had stopped was measured. The test substance in various concentrations or physiological saline solution (control) was administered to the animals 5 minutes before causing the bleeding. Groups of 20 animals were treated. The proiongalion of the bleeding time compared to the control was expressed in percent.

[3] = test system: radical formation by leucocytes; assay: Test on anti-inflammatory action: inhibition of luminol-potentiated chemiluminescence in whole blood; type: cell-based, rabbit; conditions: Oryctolagus cuniculus, Leucocyte, 1.5 h, read-out: IC50 (50% inhibition of luminol-potentiated chemiluminescence)
[4] = test system: blood clotting (activated clotting system); conditions: standard heparin from the firm Pharmindustrie; cited from earlier work

Compound	Fibrinolysis at 2 μg/ml [1] [mm^2]	heparin units (inhibition of blood clotting, aPTT) [2] [u/mg]	IC50 [3] [µg/mL]	further results
O=C(NCCCNC(=O)[C@H](OS(=O)(=O)O)[C@@H](OS(=O)(=O)O)[C@H](O[C@@H]1O[C@H](COS(=O)(=O)O)[C@H](OS(=O)(=O)O)[C@H](OS(=O)(=O)O)[C@H]1OS(=O)(=O)O)[C@@H](COS(=O)(=O)O)OS(=O)(=O)O)[C@H](OS(=O)(=O)O)[C@@H](OS(=O)(=O)O)[C@H](O[C@@H]1O[C@H](COS(=O)(=O)O)[C@H](OS(=O)(=O)O)[C@H](OS(=O)(=O)O)[C@H]1OS(=O)(=O)O)[C@@H](COS(=O)(=O)O)OS(=O)(=O)O.[Na].[Na].[Na].[Na].[Na].[Na].[Na].[Na].[Na].[Na].[Na].[Na].[Na].[Na].[Na].[Na] [Example 20, Hexadecasodium N,N'-1,3-propanediylbis-[2,3,5,6-tetra-O-sulfo-4-O-(2,3,4,6-tetra-O-sulfo-β-D-galactopyranosyl)-D-gluconamide]]	19.2	42.1	540	Lengthening of the bleeding time (bleeding time; Dose 0.5 mg/kg): 5.1%; Lengthening of the bleeding time (bleeding time; Dose 2 mg/kg): 35.1%
O=C(NCCCCCCNC(=O)[C@H](OS(=O)(=O)O)[C@@H](OS(=O)(=O)O)[C@H](O[C@@H]1O[C@H](COS(=O)(=O)O)[C@H](OS(=O)(=O)O)[C@H](OS(=O)(=O)O)[C@H]1OS(=O)(=O)O)[C@@H](COS(=O)(=O)O)OS(=O)(=O)O)[C@H](OS(=O)(=O)O)[C@@H](OS(=O)(=O)O)[C@H](O[C@@H]1O[C@H](COS(=O)(=O)O)[C@H](OS(=O)(=O)O)[C@H](OS(=O)(=O)O)[C@H]1OS(=O)(=O)O)[C@@H](COS(=O)(=O)O)OS(=O)(=O)O.[Na].[Na].[Na].[Na].[Na].[Na].[Na].[Na].[Na].[Na].[Na].[Na].[Na].[Na].[Na].[Na] [Example 23, Hexadecasodium N,N'-1,6-hexanediylbis-[2,3,5,6-tetra-O-sulfo-4-O-(2,3,4,6-tetra-O-sulfo-β-D-galactopyranosyl)-D-gluconamide]]	21.6	30.9	225	–
O=C(NCCCCCCCCCNC(=O)[C@H](OS(=O)(=O)O)[C@@H](OS(=O)(=O)O)[C@H](O[C@@H]1O[C@H](COS(=O)(=O)O)[C@H](OS(=O)(=O)O)[C@H](OS(=O)(=O)O)[C@H]1OS(=O)(=O)O)[C@@H](COS(=O)(=O)O)OS(=O)(=O)O)[C@H](OS(=O)(=O)O)[C@@H](OS(=O)(=O)O)[C@H](O[C@@H]1O[C@H](COS(=O)(=O)O)[C@H](OS(=O)(=O)O)[C@H](OS(=O)(=O)O)[C@H]1OS(=O)(=O)O)[C@@H](COS(=O)(=O)O)OS(=O)(=O)O.[Na].[Na].[Na].[Na].[Na].[Na].[Na].[Na].[Na].[Na].[Na].[Na].[Na].[Na].[Na].[Na] [Example 24, Hexadecasodium N,N'-1,9-nonanediylbis-[2,3,5,6-tetra-O-sulfo-4-O-(2,3,4,6-tetra-O-sulfo-β-D-galactopyranosyl)-D-gluconamide]]	17.8	14.1	220	–
O=C(NCCCCCCCCCCCCNC(=O)[C@H](OS(=O)(=O)O)[C@@H](OS(=O)(=O)O)[C@H](O[C@@H]1O[C@H](COS(=O)(=O)O)[C@H](OS(=O)(=O)O)[C@H](OS(=O)(=O)O)[C@H]1OS(=O)(=O)O)[C@@H](COS(=O)(=O)O)OS(=O)(=O)O)[C@H](OS(=O)(=O)O)[C@@H](OS(=O)(=O)O)[C@H](O[C@@H]1O[C@H](COS(=O)(=O)O)[C@H](OS(=O)(=O)O)[C@H](OS(=O)(=O)O)[C@H]1OS(=O)(=O)O)[C@@H](COS(=O)(=O)O)OS(=O)(=O)O.[Na].[Na].[Na].[Na].[Na].[Na].[Na].[Na].[Na].[Na].[Na].[Na].[Na].[Na].[Na].[Na] [Example 25, Hexadecasodium N,N'-1,12-dodecanediylbis-[2,3,5,6-tetra-O-sulfo-4-O-(2,3,4,6-tetra-O-sulfo-β-D-galactopyranosyl)-D-gluconamide]]	–	5.85	155	–
O=C(NC1CCC(CC2CCC(NC(=O)[C@H](OS(=O)(=O)O)[C@@H](OS(=O)(=O)O)[C@H](O[C@@H]3O[C@H](COS(=O)(=O)O)[C@H](OS(=O)(=O)O)[C@H](OS(=O)(=O)O)[C@H]3OS(=O)(=O)O)[C@@H](COS(=O)(=O)O)OS(=O)(=O)O)CC2)CC1)[C@H](OS(=O)(=O)O)[C@@H](OS(=O)(=O)O)[C@H](O[C@@H]1O[C@H](COS(=O)(=O)O)[C@H](OS(=O)(=O)O)[C@H](OS(=O)(=O)O)[C@H]1OS(=O)(=O)O)[C@@H](COS(=O)(=O)O)OS(=O)(=O)O (stereo partly drawn) [Example 31, Hexadecasodium N,N'-4,4-dicylcohexylmethanediylbis-[2,3,5,6-tetra-O-sulfo-4-O-(2,3,4,6-tetra-O-sulfo-β-D-galactopyranosyl)-D-gluconamide]]	–	10.2	–	–
O=C(NCCCOCCCCOCCCNC(=O)[C@H](OS(=O)(=O)O)[C@@H](OS(=O)(=O)O)[C@H](O[C@@H]1O[C@H](COS(=O)(=O)O)[C@H](OS(=O)(=O)O)[C@H](OS(=O)(=O)O)[C@H]1OS(=O)(=O)O)[C@@H](COS(=O)(=O)O)OS(=O)(=O)O)[C@H](OS(=O)(=O)O)[C@@H](OS(=O)(=O)O)[C@H](O[C@@H]1O[C@H](COS(=O)(=O)O)[C@H](OS(=O)(=O)O)[C@H](OS(=O)(=O)O)[C@H]1OS(=O)(=O)O)[C@@H](COS(=O)(=O)O)OS(=O)(=O)O [Example 34, Hexadecasodium N,N'-1,12-(4,9-dioxadodecanediylbis)[2,3,5,6-tetra-O-sulfo-4-O-(2,3,4,6-tetra-O-sulfo-β-D-galactopyranosyl)-D-gluconamide]]	–	15.1	–	–
COc1ccc2c(c1)c(CC(=O)O)c(C)n2C(=O)c1ccc(Cl)cc1 [Indomethacin, reference compound]	–	–	–	IC50 ([3]; zymosan-stimulated citrated rabbit blood, maximum chemiluminescence over 90 minutes): 240 µg/mL
Heparin [reference compound]	14.8	175	–	Lengthening of the bleeding time (bleeding time; Dose 0.25 mg/kg): 55.4%; Lengthening of the bleeding time (bleeding time; Dose 0.5 mg/kg): 120%; heparin activity of the standard [4]: 175 U/mg
